Publication PMC9096233, “Identification of an Au(I) N-Heterocyclic Carbene Compound as a Bactericidal Agent Against Pseudomonas aeruginosa” (Frontiers in Chemistry, 2022)
Converted amounts (≈) assume the structure as drawn. Where two headings read alike, the source gives them in different places.

Columns and labels:
P. aeruginosa [1] = experiment: Bacterial membrane permeability, propidium iodide flow cytometry; assay type: cell-based, Pseudomonas aeruginosa; details: 30 min, PI staining
Protocol: Overnight P. aeruginosa culture was diluted 1:100 with fresh M9 medium and grown to early-mid exponential phase (OD600 = 0.4–0.6). […] Then the bacteria were incubated with propidium iodide (PI), a dye that is excluded from cells with impermeable membrane. The CytoFLEX flow cytometry (Beckman Coulter) was used to measure the bacterial fluorescent intensities and the data was analyzed using CytExpert 2.4 software. For the time-course detection of the bacterial permeability induced by Au1 or auranofin, P. aeruginosa in early-mid exponential phase (OD600 = 0.2) was incubated with PI dye on a 96-well plate. Au1 or auranofin was added to a final concentration of 50 μM. The fluorescence signal (561 nm excitation, 590 nm emission) and OD600 value were recorded on Cytation5 microplate reader. Each experiment was performed in triplicates.

lung carcinoma A549 cell = experiment: MTT cytotoxicity assay; assay type: cell-based, Human; details: 48 h
Protocol: The cytotoxicity of gold compounds to mammalian cells was measured using the 3-(4, 5-dimethylthiazol-2-yl)-2, 5-diphenyltetrazolium bromide (MTT) assay. Human hepatocyte L-O2 cell, and lung carcinoma A549 cell were cultured in Corning 96 well microplates (10^4 cells per well) at 37°C for 18 h. Then the cells were incubated with gradient concentrations of gold compounds at 37°C for another 48 h. After the treatment, cell culture media were removed and the plates were wash with PBS for three times. And 90 μL fresh media and 10 μL 5 mg/ml MTT solution were added to each well and further incubated at 37°C for 4 h. Subsequently, the media were removed from the wells and 150 μL DMSO was added into each well to dissolve the formazan crystals. The absorbance at 490 nm of each well was measured with a micro-plate reader. The experiments were carried out in triplicates.

P. aeruginosa [2] = experiment: Bacterial growth curves; assay type: cell-based, Pseudomonas aeruginosa; details: 25 μM
Protocol: (§1) Pseudomonas aeruginosa strain PAO1 (P. aeruginosa) was grown in M9 minimal medium (1.0 g/L NH4Cl, 0.5 g/L NaCl, 6.0 g/L Na2HPO4, 3.0 g/L KH2PO4) supplemented with 1.0 mM MgSO4, 1.0 mM ZnSO4, 0.2 mM CaCl2, 0.4% (w/v) glucose and 0.2% (w/v) casein hydrolysate. Gram-negative Escherichia coli strain K-12 (E. coli) and Burkholderia cepacia J2315 (B. cepacia) were cultured in Luria-Bertani (LB) medium (5 g/L yeast extract, 10 g/L tryptone, 10 g/L sodium chloride). The Gram-positive Staphylococcus aureus strain Newman (S. aureus) was grown in Tryptic Soy Broth (TSB) medium (17 g/L Tryptone, 3 g/L Phytone, 5 g/L sodium chloride, 2.5 g/L dipotassium phosphate and glucose 2.5 g/L).

rhamnolipid = experiment: Rhamnolipid measurement (anthrone); assay type: cell-based, Pseudomonas aeruginosa; details: 15 μM
Protocol: To quantify the secreted virulence factors, overnight P. aeruginosa PAO1 was diluted in fresh M9 medium and cultured to a final OD600 value of 0.15. Then Au1 or auranofin were added into culture with indicated concentrations. After 24 h incubation at 37°C, the bacterial supernatants were collected by centrifugation at 4,000 g for 10 min at 4°C and filtered using a 0.22 μm syringe filter (Millipore). The secreted virulence factors in the supernatant were quantified by the methods described below.
For rhamnolipid measurement, rhamnolipid was extracted from the supernatant with a mixture of chloroform and methanol (v:v = 2:1). The organic solvent phase was then evaporated to dryness and 100 μL methanol was added to dissolve the extracted rhamnolipid. Then 200 μL of pre-cooled anthrone solution (dissolving 2 g of anthrone in 1 L of concentrated H2SO4) was added into 20 μL extracted rhamnolipid sample and heat at 80°C for 30min. The rhamnolipid concentration was determined by measurement the absorbance at 630 nm.

[3] = tested on: Staphylococcus aureus Newman; experiment: MIC by standard broth dilution; assay type: cell-based; details: Table S1
Protocol: as §1
(§2) The minimal inhibitory concentration (MIC) values of the gallium compounds were determined using a standard broth dilution method as described previously ([Wiegand et al., 2008]). In brief, the compounds were two-fold serially diluted to concentrations from 400 to 1.56 μM. Approximately 50 μL of the compound solution was added to a 96-well microtiter plate and mixed with 50 μL of bacteria culture in log phase (10^6 CFU/ml). The bacterial culture was further incubated at 37°C for 22–24 h. The OD600 values for each well was recorded on a microplate reader. The MICs value was defined as the lowest compound concentration that inhibited 95% of the bacterial growth.

Escherichia coli MG16552 = experiment: MIC by standard broth dilution; assay type: cell-based; details: Table S1
Protocol: as §1, §2

[4] = tested on: Pseudomonas aeruginosa strain PAO1; experiment: MIC by standard broth dilution; assay type: cell-based
Protocol: as §1, §2

[5] = tested on: Burkholderia cepacia J2315; experiment: MIC by standard broth dilution; assay type: cell-based; details: Table S1
Protocol: as §1, §2

P. aeruginosa PAO1 = experiment: Mouse skin wound infection model; assay type: in vivo
Protocol: Six-week-old female BALB/c mice were used for animal experiments to evaluate the healing effect of infected wounds in vivo. Briefly, mouse backs were cut to generate a circular wound (diameter 0.6 cm) with a hole punch and the wound was infiltrated using a medical cotton swab with P. aureginosa (overnight culture, OD600 = 0.3). The mice were randomly divided into three groups, including PBS, auranofin, and Au-1 groups (n = 5 in each group). The drugs were dissolved in DMSO and diluted with glycerol to a final concentration of 50 μM. After the bacterial fluid was dry, about 20 μL of the drug was added to the wound. Body weights and wound photography was recorded on days 0, 1, 3, 5, and 8. And on the 8th day, the mice were euthanized by chloral hydrate, the infectious tissues in all groups were collected and cultured into the LB plate for colony counting. The skin tissues were also fixed by paraformaldehyde solution (4%) for H&E, Gram, and Masson’s trichrome staining.
The above results promoted us to further investigate whether the Au1 compound was also efficacious in an in vivo animal infection model. To this end, we used a mouse wound infection model to assess the anti-P. aeruginosa efficacy of Au1 as described previously ([Liao et al., 2017b]). In brief, a circular wound with a diameter of 6 mm was created on the flank of mice, and approximately 5 × 10^8 CFU of P. aeruginosa PAO1 were dipped onto the wound by medical cotton swab to induce infection. Treatment is administered on the 1st day with auranofin or Au1 compound (50 μM, 20 μL) was applied to the wounds. The wound sizes and mice weights were recorded each day. On the 8th day, the infection sites were excised and part of the tissues was fixed in 4% paraformaldehyde and embedded in paraffin. Four-micrometer sections were cut, stained with Gram, H&E, and Masson’s trichrome stain. The remained tissues were homogenized and serially diluted for CFU quantification (Figure 6A).

P. aeruginosa [6] = experiment: Drug resistance development assay (serial passage); assay type: cell-based, Pseudomonas aeruginosa; details: over 14 days
Protocol: Development of resistance to the Au1 compound and the antibiotics (ciprofloxacin and tobramycin) were assessed as described by [Habets and Brockhurst (2012)]. The MIC assay was performed on the first day as described above. […] Thereafter, a new passage MIC measurement assay was prepared using diluted bacterial cells grown at 0.5-fold MIC suspension. This was repeated for 14 passages and the MIC values for Au1, ciprofloxacin and tobramycin were recorded for each passage.

[7] = Pseudomonas aeruginosa PAO1, Table S1, read-out: MIC

Compound	bacterial fluorescence signal compared with the control group (P. aeruginosa [1]; 50 μM)	IC50 (lung carcinoma A549 cell) [nM]	impact on the bacterial growth (P. aeruginosa [2])	synthesis of rhamnolipid (rhamnolipid)	MIC [3] [µM]	MIC (Escherichia coli MG16552) [µM]	MIC ([4]; P. aeruginosa PAO1, lowest concentration inhibiting 95% of growth, 22–24 h, Table 1, listed as auranofin)	MIC ([4]; P. aeruginosa PAO1, lowest concentration inhibiting 95% of growth, 22–24 h, Table 1, read-out: MIC) [µM]	MIC [4, 7] [µM]	MIC [5] [µM]	toxicity to the mice (mice weights) (P. aeruginosa PAO1; 50 μM, 20 μL on wound, 8 days)	bacteria in wound tissue (Gram staining) (P. aeruginosa PAO1; 8th day)	bacteria remained live in the infection sites (P. aeruginosa PAO1; 8th day, CFU)	increase of MIC values (P. aeruginosa [6]) [times]	bacterial fluorescence signal compared with the control group (P. aeruginosa [1]; 5 μM)
CC(=O)OC[C@H]1O[C@@H]([S-])[C@H](OC(C)=O)[C@@H](OC(C)=O)[C@@H]1OC(C)=O.CCP(CC)CC.[Au+] [Au9, auranofin]	did not significantly affect	2800 ± 400	little impact	significantly suppress	<1.56	>100	higher than 400 μM	>400	>100	>100	no significant toxicity	large number of bacteria	approximately 70%	–	–
CC1(C)S[C@@H]2[C@H](NC(=O)C(C(=O)O)c3ccccc3)C(=O)N2[C@H]1C(=O)O (some centres unmarked) [Carbenicillin]	–	–	–	–	6.25 (≈ 2.37 µg/mL)	25 (≈ 9.46 µg/mL)	–	–	> 100	> 100	–	–	–	–	–
O=C(O)c1cn(C2CC2)c2cc(N3CCNCC3)c(F)cc2c1=O [Ciprofloxacin, ciprofloxacin]	–	–	–	–	< 1.56	< 1.56	–	–	< 1.56	25 (≈ 8.28 µg/mL)	–	–	–	30	–
NC[C@H]1O[C@H](O[C@H]2[C@H](O)[C@@H](O[C@H]3O[C@H](CO)[C@@H](O)[C@H](N)[C@H]3O)[C@H](N)C[C@@H]2N)[C@H](N)C[C@@H]1O [Tobramycin, tobramycin]	–	–	–	–	25 (≈ 11.7 µg/mL)	50 (≈ 23.4 µg/mL)	–	–	12.5 (≈ 5.84 µg/mL)	> 100	–	–	–	30	–
polymyxin B	–	–	–	–	>100	<1.56	–	–	<1.56	>100	–	–	–	–	remarkably increased
